The species entered for one series is Homo sapiens. As to the kind of experiment: Selectivity index, ratio of IC50 for human recombinant full-length estrogen receptor beta to IC50 for human recombinant full-length estrogen receptor alpha.
Series [1] deals with MCF7. Put plainly: cells. The following applies: Homo sapiens, MCF7, 72 h.
Description: Antiproliferative activity against ER-dependent human MCF7 cells after 72 hrs by MTT assay
Series [2] addresses T1, Estrogen receptor beta (Homo sapiens, UniProt Q92731).
Series [3] addresses T2, Estrogen receptor (Homo sapiens, UniProt P03372).
T2 sequence (P03372 whole entry): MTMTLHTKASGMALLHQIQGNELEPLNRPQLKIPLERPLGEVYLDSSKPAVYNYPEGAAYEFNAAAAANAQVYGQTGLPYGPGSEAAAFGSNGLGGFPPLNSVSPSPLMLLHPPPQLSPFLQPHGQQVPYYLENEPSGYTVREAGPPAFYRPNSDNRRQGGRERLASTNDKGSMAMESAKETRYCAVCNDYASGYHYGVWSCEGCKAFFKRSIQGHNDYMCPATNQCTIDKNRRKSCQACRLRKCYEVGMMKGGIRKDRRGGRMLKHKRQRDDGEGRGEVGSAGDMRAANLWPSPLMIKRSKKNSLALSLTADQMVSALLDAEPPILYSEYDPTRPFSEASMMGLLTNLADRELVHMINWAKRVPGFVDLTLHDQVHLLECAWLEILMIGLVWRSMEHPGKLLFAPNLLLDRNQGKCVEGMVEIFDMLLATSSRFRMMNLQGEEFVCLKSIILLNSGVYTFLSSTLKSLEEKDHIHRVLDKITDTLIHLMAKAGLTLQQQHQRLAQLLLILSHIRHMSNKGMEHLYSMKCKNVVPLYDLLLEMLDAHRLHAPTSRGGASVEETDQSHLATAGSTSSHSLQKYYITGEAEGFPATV
Put plainly: Displacement of fluorescein-labeled estradiol (fluoromone) from human recombinant full-length estrogen receptor alpha after 2 hrs by fluorescence polarization assay. Background: Fluorescence polarisation rises when a labelled molecule tumbles more slowly, as on binding a larger partner.

In series [4] the target is T3, Estrogen receptor (Homo sapiens, UniProt Q92731+P03372). Put plainly: Antagonist activity at estrogen receptor alpha/beta in human Ishikawa cells after 72 hrs by alkaline phosphatase assay. The format is cell-based.
The subject of series [5] is MCF-10A. As to the kind of experiment: Cytotoxicity against human MCF10A cells assessed as reduction in cell viability at 10 uM after 24 to 48 hrs by CytoTox 96 non-radioactive LDH cytotoxicity assay. The format is cell-based.
For series [6], the system named is MCF-10A. Put plainly: Cytotoxicity against human MCF10A cells assessed as reduction in cell viability at 5 uM after 24 hrs by CytoTox 96 non-radioactive LDH cytotoxicity assay. The format is cell-based.
Series [7] has as its system MCF-10A. As to the kind of experiment: Cytotoxicity against human MCF10A cells assessed as reduction in cell viability at 1 to 2 uM after 24 to 48 hrs by CytoTox 96 non-radioactive LDH cytotoxicity assay. Format: cell-based.
In series [8] the target is T1, Estrogen receptor beta. As to the kind of experiment: Downregulation of estrogen receptor beta protein levels in human MCF7 cell lysate at 10 uM after 24 hrs by Western blot analysis. (In general: In western blotting, separated proteins are transferred to a membrane and probed.)
The target in series [9] is T4, Estrogen receptor (Homo sapiens) (UniProt P03372).
T4 sequence (whole entry): T2 sequence (P03372 whole entry)
Put plainly: Downregulation of estrogen receptor alpha protein levels in human MCF7 cell lysate at 10 uM after 24 hrs by Western blot analysis.

Series [10] has as its target estrogen receptor alpha/beta (Homo sapiens, UniProt P03372+Q92731). As to the kind of experiment: Estrogenic activity at estrogen receptor alpha/beta in human Ishikawa cells at 100 uM after 72 hrs by alkaline phosphatase assay relative to estradiol. The following applies: read-out: Activity. The format is ADME, cell-based.
The target in series [11] is T3, Estrogen receptor. Put plainly: Estrogenic activity at estrogen receptor alpha/beta in human Ishikawa cells at 0.01 uM after 72 hrs by alkaline phosphatase assay relative to estradiol. The format is ADME, cell-based.
In series [12] the target is T3, Estrogen receptor. Put plainly: Estrogenic activity at estrogen receptor alpha/beta in human Ishikawa cells at 10 uM after 72 hrs by alkaline phosphatase assay relative to estradiol. The format is ADME, cell-based.
The target of series [13] is T1, Estrogen receptor beta. Put plainly: Antagonist activity at estrogen receptor beta in human Ishikawa cells after 72 hrs by alkaline phosphatase assay. Format: cell-based.
For series [14], the target named is T1, Estrogen receptor beta. Put plainly: Estrogenic activity at estrogen receptor beta in human Ishikawa cells at 1 uM after 72 hrs by alkaline phosphatase assay relative to estradiol. Format: cell-based.
The subject of series [15] is MCF-10A. Put plainly: Cytotoxicity against human MCF10A cells assessed as reduction in cell viability at 1 to 10 uM after 24 to 48 hrs by CytoTox 96 non-radioactive LDH cytotoxicity assay. Format: cell-based.
The test system of series [16] is MCF7. Put plainly: cells. The following applies: Homo sapiens.
Description: Cytotoxicity against human MCF7 cells assessed as reduction in cell viability after 3 to 12 days by MTT assay

The source made the active and inactive calls. No cut-off for these calls is given here. A value given as a limit tells only on which side of the number the result lay.

T1 sequence (Q92731 whole entry): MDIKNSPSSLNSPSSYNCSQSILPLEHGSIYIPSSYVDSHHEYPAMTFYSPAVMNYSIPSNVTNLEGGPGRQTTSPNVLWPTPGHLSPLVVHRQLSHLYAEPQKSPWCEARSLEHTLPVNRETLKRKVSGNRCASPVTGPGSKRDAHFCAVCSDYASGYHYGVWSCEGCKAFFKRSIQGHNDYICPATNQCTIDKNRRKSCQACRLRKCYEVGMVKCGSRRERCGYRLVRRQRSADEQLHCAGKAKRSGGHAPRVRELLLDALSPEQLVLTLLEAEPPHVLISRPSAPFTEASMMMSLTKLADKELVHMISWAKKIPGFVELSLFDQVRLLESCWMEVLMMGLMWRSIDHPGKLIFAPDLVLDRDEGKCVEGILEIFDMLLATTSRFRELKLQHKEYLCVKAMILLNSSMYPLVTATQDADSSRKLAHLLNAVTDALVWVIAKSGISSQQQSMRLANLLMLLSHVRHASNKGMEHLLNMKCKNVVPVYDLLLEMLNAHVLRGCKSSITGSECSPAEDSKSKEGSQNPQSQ

With `CCN(CC)CCNC(=O)/C=C/c1ccc(C2=C(c3ccc(O)cc3)CCOc3cc(F)ccc32)cc1`, the Ratio IC50 in the series listed under Homo sapiens was 0.58. Besides, the half-maximal inhibitory concentration (IC50) (as a rule, the concentration at which inhibition is half-maximal) was 8800 nM in the series with MCF7 [1], 585 nM on Estrogen receptor beta [2] and 1020 nM at Estrogen receptor [3].
In the same order, the values of `O=C(/C=C/c1ccc(C2=C(c3ccc(O)cc3)CCOc3cc(F)ccc32)cc1)N1CCNCC1` are 1.9, 9500 nM, 25 nM and 14 nM.
In the same order, the values of `O=C(/C=C/c1ccc(C2=C(c3ccc(O)cc3)CCOc3cc(F)ccc32)cc1)N1CCCC1` are 0.038, 14000 nM, 2.4 nM and 67 nM.
As to `O=C(O)/C=C/c1ccc(C2=C(c3ccc(O)cc3)CCOc3cc(F)ccc32)cc1`, the Ratio IC50 in the series listed under Homo sapiens turned out to be 5.2. For the same compound, the IC50 in the series with MCF7 [1] turned out to be 260 nM; on Estrogen receptor beta [2], 72 nM; on Estrogen receptor [3], 14 nM; on Estrogen receptor [4] it was 1.39 µM.
The matching figures for `CC(=O)/C=C/c1ccc(C2=C(c3ccc(O)cc3)CCOc3cc(F)ccc32)cc1`: 3, 890 nM, 175 nM, 59 nM and 0.45 µM.
In turn, `CCNC(=O)/C=C/c1ccc(C2=C(c3ccc(O)cc3)CCOc3cc(F)ccc32)cc1` displayed an IC50 with MCF7 [1] of 700 nM.
As to `Oc1ccc(C2=C(c3ccc(/C=C/c4ccccc4)cc3)c3ccc(F)cc3OCC2)cc1`, the Ratio IC50 in the series listed under Homo sapiens was 0.6. The IC50 was found to be 12000 nM in the series with MCF7 [1], 14300 nM on Estrogen receptor beta [2] and 22400 nM at Estrogen receptor [3].
Take `O=C(O)/C=C/C=C/c1ccc(C2=C(c3ccc(O)cc3)CCOc3cc(F)ccc32)cc1`: the results for the Activity entry in the series on MCF-10A [5], with MCF-10A [6] and in the series on MCF-10A [7] were “Toxic”, 50% and “Non-Toxic”, respectively. The Ratio IC50 in the series filed under Homo sapiens amounted to 0.008. Moreover, the IC50 in the series on MCF7 [1] was 1600 nM; on Estrogen receptor beta [2] it was 0.55 nM; on Estrogen receptor [3], 71.6 nM. The Activity result (on Estrogen receptor beta [8]; in series [9]) was “Active” throughout.
In the case of `CN1CCN(C(=O)/C=C/c2ccc(C3=C(c4ccc(O)cc4)CCOc4cc(F)ccc43)cc2)CC1`, in the series listed under Homo sapiens, the Ratio IC50 stood at 6.3. In addition, the IC50 was found to be 480 nM with MCF7 [1], 354 nM on Estrogen receptor beta [2] and 57 nM at Estrogen receptor [3].
For the compound `CCN(CC)C(=O)/C=C/c1ccc(C2=C(c3ccc(O)cc3)CCOc3cc(F)ccc32)cc1`, in series [10], the activity at 72 h, 100 µM worked out at 10%. For the same compound, the Ratio IC50 in the series filed under Homo sapiens amounted to 0.12. Moreover, the IC50 in the series on MCF7 [1] turned out to be 13000 nM; against Estrogen receptor beta [2] it was 43 nM; on Estrogen receptor [3], 349 nM; against Estrogen receptor [4] it was 0.0098 µM.
On to `Cc1ccc(N2CCN(C(=O)/C=C/c3ccc(C4=C(c5ccc(O)cc5)CCOc5cc(F)ccc54)cc3)CC2)cc1`, for which the Ratio IC50 in the series filed under Homo sapiens was 4.3. The IC50 in the series with MCF7 [1] is 1050 nM; against Estrogen receptor beta [2], 203 nM; on Estrogen receptor [3] it was 48 nM.
The matching figures for `O=C(/C=C/c1ccc(C2=C(c3ccc(O)cc3)CCOc3cc(F)ccc32)cc1)Nc1ccccc1`: 0.087, 1300 nM, 0.94 nM and 11.7 nM.
Regarding `COc1ccc2c(c1)OCCC(c1ccc(O)cc1)=C2c1ccc(/C=C/C(=O)O)cc1`, the Ratio IC50 in the series listed under Homo sapiens stood at 5.3. Moreover, the half-maximal inhibitory concentration (IC50) in the series with MCF7 [1] is over 20000 nM; against Estrogen receptor beta [2], 119 nM; at Estrogen receptor [3], 23 nM; against Estrogen receptor [4], over 1 µM. The Activity at Estrogen receptor [11] is recorded as 15.8%.
For the compound `O=C(O)/C=C/c1ccc(C2=C(c3ccc(O)cc3)CCSc3cc(F)ccc32)cc1`, the Activity at Estrogen receptor [12] is recorded as 1.6%. Also, the Ratio IC50 in the series listed under Homo sapiens amounted to 0.8. The IC50 in the series on MCF7 [1] came to 95 nM; against Estrogen receptor beta [2], 3.1 nM; on Estrogen receptor [3], 4.1 nM; at Estrogen receptor [4], 0.18 µM.
In turn, `CCC(=C(c1ccc(O)cc1)c1ccc(OCCN(C)C)cc1)c1ccccc1` gave a half-inhibitory concentration (IC50) in the series on MCF7 [1] of 110 nM.
Take `O=C(O)CCCOc1ccc(C2=C(c3ccc(O)cc3)CCOc3cc(F)ccc32)cc1`: in the series listed under Homo sapiens, the Ratio IC50 came out at 0.008. The IC50 in the series on MCF7 [1] is over 20000 nM; at Estrogen receptor beta [2], 1.23 nM; on Estrogen receptor [3], 147 nM; against Estrogen receptor beta [13] it was 430 nM. In addition, the Activity was 3.2% on Estrogen receptor beta [14] and “Non-Toxic” in the series on MCF-10A [15]. The Activity entry at Estrogen receptor beta [8] was “Active”. The Activity result in [9] is “inactive”.
With `O=C(/C=C/c1ccc(C2=C(c3ccc(O)cc3)CCOc3cc(F)ccc32)cc1)N1CCN(Cc2ccccc2)CC1`, the Ratio IC50 in the series listed under Homo sapiens was 1. The half-inhibitory concentration (IC50) was 8400 nM in the series with MCF7 [1], 72 nM against Estrogen receptor beta [2] and 74 nM at Estrogen receptor [3].
Turning to `O=C(O)/C=C/c1ccc(C2=C(c3ccc(O)cc3)CCOc3ccccc32)cc1`, the Ratio IC50 in the series filed under Homo sapiens is 2.2. Besides, the half-inhibitory concentration (IC50) in the series on MCF7 [1] was determined as 21000 nM; at Estrogen receptor beta [2] it was 46 nM; at Estrogen receptor [3] it was 21 nM; against Estrogen receptor [4], 0.67 µM.
Turning to `CCC(=C(c1ccc(O)cc1)c1ccc(/C=C/C(=O)O)cc1)c1ccccc1`, the half-inhibitory concentration (IC50) in the series on MCF7 [1] was 1300 nM; in the series on MCF7 [16] it was 100 to 1000 nM.
Regarding `O=C(/C=C/c1ccc(C2=C(c3ccc(O)cc3)CCOc3cc(F)ccc32)cc1)c1ccccc1`, the Ratio IC50 in the series listed under Homo sapiens came out at 4.2. For the same compound, the half-maximal inhibitory concentration (IC50) in the series with MCF7 [1] was 970 nM; on Estrogen receptor beta [2], 447 nM; at Estrogen receptor [3], 104 nM.
For the compound `O=Cc1ccc(C2=C(c3ccc(O)cc3)CCOc3cc(F)ccc32)cc1`, the IC50 turned out to be 395 nM against Estrogen receptor beta [2] and 407 nM at Estrogen receptor [3].
For `COc1ccc2c(c1)OCCC(c1ccc(O)cc1)=C2c1ccc(OCC(=O)O)cc1`, the Ratio IC50 in the series listed under Homo sapiens stood at 2.4. The IC50 was over 20000 nM in the series on MCF7 [1], 1010 nM against Estrogen receptor beta [2] and 429 nM on Estrogen receptor [3].
In the same order, the values of `O=C(O)COc1ccc(C2=C(c3ccc(O)cc3)CCOc3cc(F)ccc32)cc1` are 0.054, over 20000 nM, 34 nM and 634 nM.

Source of the values: ChEMBL document CHEMBL4219027, “Lead Optimization of Benzoxepin-Type Selective Estrogen Receptor (ER) Modulators and Downregulators with Subtype-Specific ERα and ERβ Activity” (J Med Chem, 2018).
